Reference: PMC12167799, “The role of human Shu complex in ATP-dependent regulation of RAD51 filaments during homologous recombination–associated DNA damage response” (The Journal of Biological Chemistry, 2025)

Biological target: T1, hSWS1-SWSAP1 (human Shu complex) (Homo sapiens, UniProt Q6NVH7)
T1 construct: heterodimer co-expressed in High Five insect cells (baculovirus); SWSAP1 with TEV-cleavable N-terminal 6xHis tag (cleaved), SWS1 untagged; with Zinc finger SWIM domain-containing protein 7
T1 sequence (Q6NVH7 22-250): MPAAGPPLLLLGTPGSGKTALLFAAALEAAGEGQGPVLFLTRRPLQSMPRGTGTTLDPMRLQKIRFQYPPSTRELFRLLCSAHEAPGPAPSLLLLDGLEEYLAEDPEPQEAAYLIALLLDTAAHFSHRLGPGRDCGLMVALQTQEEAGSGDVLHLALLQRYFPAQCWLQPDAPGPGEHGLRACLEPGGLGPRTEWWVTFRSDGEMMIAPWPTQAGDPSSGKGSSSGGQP
T1 sequence (Q19AV6 1-140 partner): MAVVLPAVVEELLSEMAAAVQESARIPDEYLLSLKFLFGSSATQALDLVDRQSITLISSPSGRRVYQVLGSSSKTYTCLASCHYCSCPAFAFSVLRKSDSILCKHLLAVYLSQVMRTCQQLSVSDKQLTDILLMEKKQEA
Assay: TNP-ATP displacement fluorescence, one-site competitive fit
Assay type: binding
Conditions: read-out: Kd^ATP; 2 μM protein; 2.5 μM TNP-ATP; no DNA; 37 °C; competitive with TNP-ATP

- Kd: 72.3 µM
SMILES: Nc1ncnc2c1ncn2[C@@H]1O[C@H](COP(=O)(O)OP(=O)(O)OP(=O)(O)O)[C@@H](O)[C@H]1O [ATP]
